This is an account of results in patent publication US20140206682A1, “COMPOUNDS AND COMPOSITIONS AS PDGFR KINASE INHIBITORS” (NOVARTIS PHARMACEUTICALS UK LIMITED, priority 2011, published 2014).

Bounds are passed on as bounds.

The subject of this test is PDGFR. Description: Rat A10 cell proliferation assay. Format: cell-based. The note with it: Table 2; Rat A10 cells, recombinant rat PDGF-BB, CellTiter-Glo after 68 hours. Here is the method: Compounds of Formula (I) provided herein were assayed to measure their capacity to inhibit c-kit and PDGFR kinases using the appropriate assay described below: c-Kit inhibition was evaluated using the Mo7e cell proliferation assay, and PDGFR inhibition was evaluated using the Rat A10 cell proliferation assay and the Human TG/HA-VSMC cell proliferation assay.
Rat A10 cells (ATCC) were resuspended in DMEM supplemented with 1% FBS and 10 ng/mL recombinant rat PDGF-BB at 20,000 cells/mL. The cells were aliquoted into 384 well plates at 50 μL/well and incubated for 4 hours at 37° C. 0.5 μL of test compound 3-fold serially diluted in DMSO was added to each well. The plates were returned to the incubator for a further 68 hours. 25 μL of CellTiter-Glo (Promega) was added to each well and the plates were incubated on the bench for 15 minutes. Luminescence was then read using a CLIPR CCD camera (Molecular Devices).
Regarding `O=C(NC12C[C@@H]3C[C@@H](CC(O)(C3)C1)C2)c1ccc(F)c(NC(=O)c2cnc3ccccn23)c1` [F52, N-(2-fluoro-5-{[(5R,7S)-3-hydroxyadamantan-1-yl]carbamoyl}phenyl)imidazo[1,2-a]pyridine-3-carboxamide], the IC50 came to 0.422 µM.
For `O=C(NC1Cc2ccccc2C1O)c1ccc(F)c(NC(=O)c2cnc3ccccn23)c1` (stereo not drawn) [F53, N-{2-fluoro-5-[(1-hydroxy-2,3-dihydro-1H-inden-2-yl)carbamoyl]phenyl}imidazo[1,2-a]pyridine-3-carboxamide], the IC50 stood at 0.433 µM.
Regarding `[2H]c1c([2H])c([2H])n2c(C(=O)Nc3cc(C(=O)N[C@H]4c5ccccc5C[C@H]4O)ccc3F)cnc2c1[2H]` [F55, N-(2-fluoro-5-{[(1S,2R)-2-hydroxy-2,3-dihydro-1H-inden-1-yl]carbamoyl}phenyl)-5,6,7,8-tetrahydrogenioimidazo[1,2-a]pyridine-3-carboxamide], the IC50 worked out at 0.484 µM.
Turning to `O=C(N[C@@H]1CCCC[C@H]1O)c1ccc(F)c(NC(=O)c2cnc3ccccn23)c1` [F56, N-(2-fluoro-5-{[(1R,2R)-2-hydroxycyclohexyl]carbamoyl}phenyl)imidazo[1,2-a]pyridine-3-carboxamide], the IC50 amounted to 0.521 µM.
With `CCC[C@@H](CO)NC(=O)c1cccc(NC(=O)c2cnc3ccccn23)c1` [F57, N-(3-{[(2S)-1-hydroxypentan-2-yl]carbamoyl}phenyl)imidazo[1,2-a]pyridine-3-carboxamide], the IC50 worked out at 0.522 µM.
On to `O=C(N[C@H]1CCCC[C@H]1CO)c1ccc(F)c(NC(=O)c2cnc3ccccn23)c1` [F59], for which the IC50 amounted to 0.603 µM.
Regarding `O=C(N[C@H]1c2ccccc2C[C@H]1O)c1ccc(F)c(NC(=O)c2cnc3cc(F)ccn23)c1` [F60, 7-fluoro-N-(2-fluoro-5-{[(1S,2R)-2-hydroxy-2,3-dihydro-1H-inden-1-yl]carbamoyl}phenyl)imidazo[1,2-a]pyridine-3-carboxamide], the IC50 came out at 0.609 µM.
In the case of `O=C(NCC(O)C(F)(F)F)c1ccc(F)c(NC(=O)c2cnc3ccccn23)c1` (stereo not drawn) [F63, N-{2-fluoro-5-[(3,3,3-trifluoro-2-hydroxypropyl)carbamoyl]phenyl}imidazo[1,2-a]pyridine-3-carboxamide], the IC50 was found to be 1.06 µM.
On to `O=C(NCC1(O)CCCCC1)c1cccc(NC(=O)c2cnc3ccccn23)c1` [F64], for which the IC50 came out at 1.1 µM.
Consider `O=C(NC(CO)c1ccccc1)c1cccc(NC(=O)c2cnc3ccccn23)c1` (stereo not drawn) [F65, N-{3-[(2-hydroxy-1-phenylethyl)carbamoyl]phenyl}imidazo[1,2-a]pyridine-3-carboxamide], for which the IC50 was 1.11 µM.
On to `O=C(N[C@H]1c2ccccc2C[C@H]1O)c1cccc(NC(=O)c2cnc3ccccn23)c1` [F68, N-(3-{[(1S,2R)-2-hydroxy-2,3-dihydro-1H-inden-1-yl]carbamoyl}phenyl)imidazo[1,2-a]pyridine-3-carboxamide], for which the IC50 is 1.52 µM.
In the case of `O=C(NCC1(O)CCCC1)c1cccc(NC(=O)c2cnc3ccccn23)c1` [F69], the IC50 is 1.85 µM.
With `O=C(N[C@H]1c2ccccc2C[C@H]1O)c1ccc(F)c(NC(=O)c2cnc3ccc(COCC(F)(F)F)cn23)c1` [F70, N-(2-fluoro-5-{[(1S,2R)-2-hydroxy-2,3-dihydro-1H-inden-1-yl]carbamoyl}phenyl)-6-[(2,2,2-trifluoroethoxy)methyl]imidazo[1,2-a]pyridine-3-carboxamide], the IC50 came out at 2.09 µM.
For `O=C(N[C@H]1c2ccccc2C[C@H]1O)c1ccc(F)c(NC(=O)c2cnc3cc(N4CCOCC4)ccn23)c1` [F71, N-(2-fluoro-5-{[(1S,2R)-2-hydroxy-2,3-dihydro-1H-inden-1-yl]carbamoyl}phenyl)-7-(morpholin-4-yl)imidazo[1,2-a]pyridine-3-carboxamide], the IC50 was 2.18 µM.
Turning to `O=C(NCC1(O)CCC1)c1cccc(NC(=O)c2cnc3ccccn23)c1` [F73, N-(3-{[(1-hydroxycyclobutyl)methyl]carbamoyl}phenyl)imidazo[1,2-a]pyridine-3-carboxamide], the IC50 was 3.27 µM.
As to `O=C(N[C@H]1CCC[C@H]1O)c1ccc(F)c(NC(=O)c2cnc3ccccn23)c1` [F74, N-(2-fluoro-5-{[(1S,2R)-2-hydroxycyclopentyl]carbamoyl}phenyl)imidazo[1,2-a]pyridine-3-carboxamide], the IC50 worked out at 3.48 µM.
As to `O=C(N[C@@H]1CCC[C@H]1O)c1ccc(F)c(NC(=O)c2cnc3ccccn23)c1` [F75, N-(2-fluoro-5-{[(1R,2R)-2-hydroxycyclopentyl]carbamoyl}phenyl)imidazo[1,2-a]pyridine-3-carboxamide], the IC50 was found to be 3.84 µM.
As to `O=C(N[C@H]1CC[C@H](O)CC1)c1cccc(NC(=O)c2cnc3ccccn23)c1` [F76, N-{3-[(4-hydroxycyclohexyl)carbamoyl]phenyl}imidazo[1,2-a]pyridine-3-carboxamide], the IC50 was found to be 9.42 µM.
Regarding `O=C(NC1(CO)CCCC1)c1cccc(NC(=O)c2cnc3ccccn23)c1` [F77, N-(3-{[1-(hydroxymethyl)cyclopentyl]carbamoyl}phenyl)imidazo[1,2-a]pyridine-3-carboxamide], the IC50 is 9.45 µM.
As to `C[C@@H](CO)NC(=O)c1cccc(NC(=O)c2cnc3ccccn23)c1` [F78, N-(3-{[(2S)-1-hydroxypropan-2-yl]carbamoyl}phenyl)imidazo[1,2-a]pyridine-3-carboxamide], the IC50 was greater than 10 µM.
With `CC[C@@H](CO)NC(=O)c1cccc(NC(=O)c2cnc3ccccn23)c1` [F79, N-(3-{[(2S)-1-hydroxybutan-2-yl]carbamoyl}phenyl)imidazo[1,2-a]pyridine-3-carboxamide], the IC50 was greater than 10 µM.
On to `CC(C)[C@H](CO)NC(=O)c1cccc(NC(=O)c2cnc3ccccn23)c1` [F80, N-(3-{[(2R)-1-hydroxy-3-methylbutan-2-yl]carbamoyl}phenyl)imidazo[1,2-a]pyridine-3-carboxamide], for which the IC50 is greater than 10 µM.
On to `O=C(N[C@H]1c2ccccc2C[C@H]1O)c1ccc(F)c(NC(=O)c2cnc3ccc(-n4ccnc4)cn23)c1` [F81, N-(2-fluoro-5-{[(1S,2R)-2-hydroxy-2,3-dihydro-1H-inden-1-yl]carbamoyl}phenyl)-6-(1H-imidazol-1-yl)imidazo[1,2-a]pyridine-3-carboxamide], for which the IC50 is greater than 10 µM.
In the case of `O=C(N[C@@H]1CCCC[C@@H]1O)c1ccc(F)c(NC(=O)c2cnc3ccccn23)c1` [F82, N-(2-fluoro-5-{[(1R,2S)-2-hydroxycyclohexyl]carbamoyl}phenyl)imidazo[1,2-a]pyridine-3-carboxamide] it was 0.304 µM; in that of `[2H]c1c([2H])c([2H])n2c(C(=O)Nc3cc(C(=O)N[C@@H]4c5ccccc5C[C@@H]4O)ccc3F)cnc2c1[2H]` [F83, N-(2-fluoro-5-{[(1R,2S)-2-hydroxy-2,3-dihydro-1H-inden-1-yl]carbamoyl}phenyl)-5,6,7,8-tetrahydrogenioimidazo[1,2-a]pyridine-3-carboxamide], 0.289 µM; in that of `Cc1ccc2ncc(C(=O)Nc3cc(C(=O)N[C@@H]4c5ccc(Cl)cc5C[C@@H]4O)ccc3F)n2c1` [F84, N-(5-{[(1R,2S)-5-chloro-2-hydroxy-2,3-dihydro-1H-inden-1-yl]carbamoyl}-2-fluorophenyl)-6-methylimidazo[1,2-a]pyridine-3-carboxamide], 0.584 µM.
As for `Cc1ccc2ncc(C(=O)Nc3cc(C(=O)N[C@@H]4c5ccccc5C[C@@H]4O)c(Cl)cc3F)n2c1` [F85, N-(4-chloro-2-fluoro-5-{[(1R,2S)-2-hydroxy-2,3-dihydro-1H-inden-1-yl]carbamoyl}phenyl)-6-methylimidazo[1,2-a]pyridine-3-carboxamide], the IC50 worked out at 4.02 µM.
With `O=C(N[C@@H](CO)c1ccccc1)c1ccc(F)c(NC(=O)c2cnc3ccccn23)c1` [F86, N-(2-fluoro-5-{[(1R)-2-hydroxy-1-phenylethyl]carbamoyl}phenyl)imidazo[1,2-a]pyridine-3-carboxamide], the IC50 is 1.51 µM.
Consider `Cc1ccc2ncc(C(=O)Nc3cc(C(=O)N[C@@H]4c5ccccc5C[C@@H]4O)c(F)cc3F)n2c1` [F87, N-(2,4-difluoro-5-{[(1R,2S)-2-hydroxy-2,3-dihydro-1H-inden-1-yl]carbamoyl}phenyl)-6-methylimidazo[1,2-a]pyridine-3-carboxamide], for which the IC50 was determined as 2.86 µM.
For the compound `Cc1ccc2ncc(C(=O)Nc3cc(C(=O)N[C@@H]4c5ccccc5C[C@@H]4O)c(C)cc3F)n2c1` [F88, N-(2-fluoro-5-{[(1R,2S)-2-hydroxy-2,3-dihydro-1H-inden-1-yl]carbamoyl}-4-methylphenyl)-6-methylimidazo[1,2-a]pyridine-3-carboxamide], the IC50 stood at 2.19 µM.
Consider `Cc1ccc2ncc(C(=O)Nc3cc(C(=O)N[C@@H]4c5cc(F)ccc5C[C@@H]4O)c(C)cc3F)n2c1` [F89, N-(2-fluoro-5-{[(1R,2S)-6-fluoro-2-hydroxy-2,3-dihydro-1H-inden-1-yl]carbamoyl}-4-methylphenyl)-6-methylimidazo[1,2-a]pyridine-3-carboxamide], for which the IC50 was 1.81 µM.
With `O=C(NCC1(CO)CCCC1)c1ccc(F)c(NC(=O)c2cnc3ccccn23)c1` [F90, N-(2-fluoro-5-({[1-(hydroxymethyl)cyclopentyl]methyl}carbamoyl)phenyl]imidazo[1,2-a]pyridine-3-carboxamide], the IC50 was 1.76 µM.
As for `O=C(NCC1(O)CCC1)c1ccc(F)c(NC(=O)c2cnc3ccccn23)c1` [F91, N-(2-fluoro-5-{[(1-hydroxycyclobutyl)methyl]carbamoyl}phenyl)imidazo[1,2-a]pyridine-3-carboxamide], the IC50 amounted to 1.75 µM.
